Reference: US6060472A, “Thiadiazole compounds useful as inhibitors of H^+ /K^+ atpase” (Apotex Inc., priority 1998, dated 2000)
pIC50: −log10 of the molar value.

Columns and labels:
gastric acid secretion = assay: Gastric secretion study in rat (pylorus ligation); format: in vivo, Male Sprague-Dawley rats; conditions: oral gavage, pylorus-ligated rat, 2 hours post ligation; for Average total gastric contents: Control 2.5; for Average total acid output: Control 298
Procedure: Gastric Secretion Study in Rat The objective of the study was to establish the antisecretory effects of two experimental compounds compared to Omeprazole. Male Sprague-Dawley rats (110 to 140 g in weight) were ordered from Ace Animals, Inc., Boyertown Pa. and were randomized into […] groups. The Control animals were administered carboxymethylcellulose (CMC) as the treated groups were administered the test materials in a suspension of CMC. Two groups were allotted to a reference standard of Omeprazole and were administered doses of 2 and 8 mg/kg. The other 4 dose groups were allotted to the 2 experimental compounds at doses of 8 and 32 mg/kg. All test materials were administered by oral gavage as this is the intended route in humans. Each animal was dosed using a stainless steel ball-tipped gavage needle attached to an appropriate size syringe. All doses administered were based on fasted body weights taken prior to the dosing. Two hours post drug administration, the animals were anesthetized using a short acting general anesthetic (Methoxital Sodium). The midline incision was made and the gastric duodenal area exposed. A ligature of thread was placed around the pylorus and tied tightly. This ligature around the pylorus stimulates the production of gastric acid. The incision was closed post ligation and the animal was replaced in its cage without access of food or water. All rats were euthanized 2 hours post pylorus ligation using an overdose of sodium pentobarbital. The esophagus was ligated and the intact stomach was removed and opened along the great curvature. Gastric contents were collected in a plastic cup and transferred to a 15 ml conical tube. The contents were centrifuged for approximately 10 minutes. The supernatant was decanted and the volume was measured to the nearest tenth of a milliliter. 1 ml of the gastric contents were pipetted into 4 ml of distilled water and titrated with 0.01 N sodium hydroxide to a pH of 7.0. The acidity was measured by titration and the total acid output calculated.

[1] = test system: isolated murine gastric glands of mouse (acid secretion); assay: In vitro inhibition of gastric acid secretion (14C-aminopyrine accumulation in isolated mouse gastric glands); format: cell-based; conditions: 1 h, 60 min at 37 °C, secretagogue stimulated
Procedure: In Vitro Inhibition of Gastric Acid Secretion by Compounds of Formula I
Acid secretion is measured indirectly by the accumulation of the weak base ^14 C-aminopyrine in the isolated murine gastric glands of mouse. The assay is performed in polypropylene eppendorf tubes containing 0.5 mL of resuspended mouse gastric glands. In addition, tubes contain the tested drug, acid secretagogues (e.g. histamine, di-butyryl cyclic AMP (cAMP), carbachol) and ^14 C-aminopyrine. Tubes are incubated for 60 min. at 37 ° C. and continuously rotated. The reaction is stopped by centrifugation of the gland suspension for five min. at 1500 g. Supernatant is aspirated leaving the pellet containing intact gastric glands. The pellet is washed extensively and digested overnight in 1 mL of Protosol (Amersham). After neutralisation with acetic acid and addition of scintillation fluid, the radioactivity is counted in a beta-counter (Beckman). The amount of radioactivity trapped in the pellet corresponds directly with the amount of acid being secreted. Each experimental point is done in triplicate. In each experiment, energy independent consumption was estimated with 0.1 mM of dinitrophenol and basal acid secretion in the absence of acid stimulants. These values were then subtracted from corresponding results in order to calculate basal or secretagogue stimulated acid secretion.
Mouse glands respond to a variety of conventional secretagogues and post-receptor mediators but not to gastrin. The maximum stimulation of acid secretion is achieved with 1 mM cAMP, 0.1 mM histamine, 0.1 mM IBMX, 10 μM carbachol, 10 μM forskolin, 10 μM calcium ionophore A23187, 1 μM thapsigarin. Each experiment is repeated a number of times and all results are expressed as a % of the maximum stimulation. For the purpose of comparing the relative potency of the compounds, each experiment contains positive controls using omeprazole for post-receptor/cAMP mediated responses and ranitidine which inhibits histamine mediated acid secretion.
Using the above procedure, the IC50 value for these compounds were as follows: […]

| pIC50 [1] | SMILES | Average total gastric contents (gastric acid secretion; 8 mg/kg) [mL] | Average total acid output (gastric acid secretion; 8 mg/kg) [µEq] | Average total gastric contents (gastric acid secretion; 32 mg/kg) [mL] | Average total acid output (gastric acid secretion; 32 mg/kg) [µEq] | Average total gastric contents (gastric acid secretion; 2 mg/kg) [mL] | Average total acid output (gastric acid secretion; 2 mg/kg) [µEq] |
| --- | --- | --- | --- | --- | --- | --- | --- |
| 4.60 | O=C(c1cccc(Cl)c1)c1nsc(N2CCN(c3ccccn3)CC2)n1 [3-(3-chlorobenzoyl)-5-{4-[pyridin-2-yl]-piperazin-1-yl}-1,2,4-thiadiazole] | 1.9 | 159 | 2.9 | 271 | – | – |
| 4.00 | COc1nsc(N2CCN(c3ccccn3)CC2)n1 [3-methoxy-5-{4-[pyridin-2-yl]-piperazin-1-yl}-1,2,4-thiadiazole] | – | – | – | – | – | – |
| 5.22 | O=C(c1ccccc1)c1nsc(N2CCN(c3ccccn3)CC2)n1 [3-benzoyl-5-{4-[pyridin-2-yl]-piperazin-1-yl}-1,2,4-thiadiazole] | – | – | – | – | – | – |
| 4.30 | O=C(c1ccccc1)c1nsc(N2CCN(C(c3ccccc3)c3ccc(Cl)cc3)CC2)n1 (stereo not drawn) [3-benzoyl-5-{4-[1-phenyl-1-(4-chlorophenyl)methyl]piperazin-1-yl}-1,2,4-thiadiazole] | – | – | – | – | – | – |
| – | COc1ccc2[nH]c([S+]([O-])Cc3ncc(C)c(OC)c3C)nc2c1 (stereo not drawn) [Omeprazole, reference compound] | 1.9 | 164 | – | – | 2.2 | 296 |
| 4.52 | OC(c1ccccc1)c1nsc(N2CCN(c3ccccn3)CC2)n1 (stereo not drawn) [3-(1-hydroxy-1-phenylmethyl)-5-{4-[pyridin-2-yl]-piperazin-1-yl}-1,2,4-thiadiazole] | – | – | – | – | – | – |
| 5.40 | c1ccc(-c2nsc(N3CCN(c4ccccn4)CC3)n2)cc1 [3-phenyl-5-{4-[pyridin-2-yl]-piperazin-1-yl}-1,2,4-thiadiazole] | 2.2 | 223 | 1.2 | 100 | – | – |
